Legend:
Format in all cases: in vivo
alopecurus japonicas = assay: wheat field resistant weed control, greenhouse spray at 4 leaf stage; design: key: Level 10: completely dead; Level 9: above 95% growth control rate; Level 8: above 90% growth control rate; Level 7: above 80% growth control rate; Level 6: above 70% growth control rate; Level 5: above 60% growth control rate; Level 4: above 50% growth control rate; Level 3: above 20% growth control rate; Level 2: 5%-20% growth control rate; Level 1: below 5% growth control rate; details: sprayed at 4 leaf stage, 4 weeks after treatment, resistant to ALS and ACCase inhibitor herbicides
Experimental: (§1) The activity level standard of harmful plant destruction (i.e. growth control rate) is as follows:
(§2) The above described growth control rate is fresh weight control rate.
(§3) The seeds of alopecurus japonicas, flixweed, shepherd's purse, corn gromwell, chickweed, beckmannia syzigachne, and annual ryegrass and wheat seeds were put into a plastic pot loaded with soil, and then covered with 0.5-2 cm soil, the seeds were allowed to grow in good greenhouse environment. The test plants were treated at 4 leaf stage 2-3 weeks after sowing. The test compounds of the present invention were dissolved in acetone respectively, then added with methyl oleate emulsion and diluted by certain amount of water to certain concentration. The solution was sprayed to the plant with a sprayer. Then the plants were cultured for 4 weeks in greenhouse.

wheat [1] = assay: wheat field test, crop selectivity, greenhouse spray at 4 leaf stage; details: 4 weeks after treatment
Experimental: as §1, §2, §3

rice = assay: post-emergence stage experiment, crop (Table 1); details: post-emergence spray at 4-5 leaf stage, 250 g/ha active ingredient with 450 kg/ha water, rated after 3 weeks in greenhouse
Summary of the method: (§4)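 Weed and crop seeds sown in soil-filled pots under 0.5-2 cm soil, greenhouse-grown, then sprayed at 4-5 leaf stage (2-3 weeks after sowing) with compound in acetone/Tween 80/water. Fresh weight growth control rate assessed after 3 weeks in greenhouse.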

corn = assay: post-emergence stage experiment, crop (Table 1); details: post-emergence spray at 4-5 leaf stage, 250 g/ha active ingredient with 450 kg/ha water, rated after 3 weeks in greenhouse
Summary of the method: as §4

wheat [2] = assay: post-emergence stage experiment, crop (Table 1); details: post-emergence spray at 4-5 leaf stage, 250 g/ha active ingredient with 450 kg/ha water, rated after 3 weeks in greenhouse
Summary of the method: as §4

foxtail = assay: weed control effect in post-emergence stage (Table 1); design: key: Level 10: completely dead; Level 9: above 95% growth control rate; Level 8: above 90% growth control rate; Level 7: above 80% growth control rate; Level 6: above 70% growth control rate; Level 5: above 60% growth control rate; Level 4: above 50% growth control rate; Level 3: above 20% growth control rate; Level 2: 5%-20% growth control rate; Level 1: below 5% growth control rate; details: post-emergence spray at 4-5 leaf stage, 250 g/ha active ingredient with 450 kg/ha water, rated after 3 weeks in greenhouse
Summary of the method: as §4

crab grass = assay: as above; design: key: Level 10: completely dead; Level 9: above 95% growth control rate; Level 8: above 90% growth control rate; Level 7: above 80% growth control rate; Level 6: above 70% growth control rate; Level 5: above 60% growth control rate; Level 4: above 50% growth control rate; Level 3: above 20% growth control rate; Level 2: 5%-20% growth control rate; Level 1: below 5% growth control rate; details: post-emergence spray at 4-5 leaf stage, 250 g/ha active ingredient with 450 kg/ha water, rated after 3 weeks in greenhouse
Summary of the method: as §4

Indian mallow = assay: as above; design: key: Level 10: completely dead; Level 9: above 95% growth control rate; Level 8: above 90% growth control rate; Level 7: above 80% growth control rate; Level 6: above 70% growth control rate; Level 5: above 60% growth control rate; Level 4: above 50% growth control rate; Level 3: above 20% growth control rate; Level 2: 5%-20% growth control rate; Level 1: below 5% growth control rate; details: post-emergence spray at 4-5 leaf stage, 250 g/ha active ingredient with 450 kg/ha water, rated after 3 weeks in greenhouse
Summary of the method: as §4

echinochloa = assay: as above; design: key: Level 10: completely dead; Level 9: above 95% growth control rate; Level 8: above 90% growth control rate; Level 7: above 80% growth control rate; Level 6: above 70% growth control rate; Level 5: above 60% growth control rate; Level 4: above 50% growth control rate; Level 3: above 20% growth control rate; Level 2: 5%-20% growth control rate; Level 1: below 5% growth control rate; details: post-emergence spray at 4-5 leaf stage, 250 g/ha active ingredient with 450 kg/ha water, rated after 3 weeks in greenhouse
Summary of the method: as §4

rorippa indica = assay: as above; design: key: Level 10: completely dead; Level 9: above 95% growth control rate; Level 8: above 90% growth control rate; Level 7: above 80% growth control rate; Level 6: above 70% growth control rate; Level 5: above 60% growth control rate; Level 4: above 50% growth control rate; Level 3: above 20% growth control rate; Level 2: 5%-20% growth control rate; Level 1: below 5% growth control rate; details: post-emergence spray at 4-5 leaf stage, 250 g/ha active ingredient with 450 kg/ha water, rated after 3 weeks in greenhouse
Summary of the method: as §4

bidens bipinnata = assay: as above; design: key: Level 10: completely dead; Level 9: above 95% growth control rate; Level 8: above 90% growth control rate; Level 7: above 80% growth control rate; Level 6: above 70% growth control rate; Level 5: above 60% growth control rate; Level 4: above 50% growth control rate; Level 3: above 20% growth control rate; Level 2: 5%-20% growth control rate; Level 1: below 5% growth control rate; details: post-emergence spray at 4-5 leaf stage, 250 g/ha active ingredient with 450 kg/ha water, rated after 3 weeks in greenhouse
Summary of the method: as §4

shepherd's purse = assay: wheat field resistant broadleaf weed control, greenhouse spray at 4 leaf stage; design: key: Level 10: completely dead; Level 9: above 95% growth control rate; Level 8: above 90% growth control rate; Level 7: above 80% growth control rate; Level 6: above 70% growth control rate; Level 5: above 60% growth control rate; Level 4: above 50% growth control rate; Level 3: above 20% growth control rate; Level 2: 5%-20% growth control rate; Level 1: below 5% growth control rate; details: 250 g/ha of the active substance; 4 weeks after treatment; ALS inhibitor resistant
Experimental: as §1, §2, §3

flixweed = assay: as above; design: key: Level 10: completely dead; Level 9: above 95% growth control rate; Level 8: above 90% growth control rate; Level 7: above 80% growth control rate; Level 6: above 70% growth control rate; Level 5: above 60% growth control rate; Level 4: above 50% growth control rate; Level 3: above 20% growth control rate; Level 2: 5%-20% growth control rate; Level 1: below 5% growth control rate; details: 250 g/ha of the active substance; 4 weeks after treatment; ALS inhibitor resistant
Experimental: as §1, §2, §3

chickweed = assay: as above; design: key: Level 10: completely dead; Level 9: above 95% growth control rate; Level 8: above 90% growth control rate; Level 7: above 80% growth control rate; Level 6: above 70% growth control rate; Level 5: above 60% growth control rate; Level 4: above 50% growth control rate; Level 3: above 20% growth control rate; Level 2: 5%-20% growth control rate; Level 1: below 5% growth control rate; details: 250 g/ha of the active substance; 4 weeks after treatment; ALS inhibitor resistant
Experimental: as §1, §2, §3

corn gromwell = assay: as above; design: key: Level 10: completely dead; Level 9: above 95% growth control rate; Level 8: above 90% growth control rate; Level 7: above 80% growth control rate; Level 6: above 70% growth control rate; Level 5: above 60% growth control rate; Level 4: above 50% growth control rate; Level 3: above 20% growth control rate; Level 2: 5%-20% growth control rate; Level 1: below 5% growth control rate; details: 250 g/ha of the active substance; 4 weeks after treatment; ALS inhibitor resistant
Experimental: as §1, §2, §3

[3] = 2 g/mu, sprayed at 4 leaf stage
[4] = 4 g/mu, sprayed at 4 leaf stage
[5] = 8 g/mu, sprayed at 4 leaf stage
[6] = 16 g/mu, sprayed at 4 leaf stage
[7] = 32 g/mu, sprayed at 4 leaf stage
[8] = 250 g/ha of the active substance

For `Cc1nn(C)cc1C(=O)Oc1c(C(=O)c2ccc(C(F)(F)F)c(N3CCCC3=O)c2Cl)c(C2CC2)nn1C` [Compound 027], the “Alopecurus japonicas weed controlling effect (activity level)” value (alopecurus japonicas; 1 g/mu) was 6 (Level 6: above 70% growth control rate), the “Alopecurus japonicas weed controlling effect (activity level)” value (alopecurus japonicas; 2 g/mu) was 10 and the “Alopecurus japonicas weed controlling effect (activity level)” value (alopecurus japonicas; 4 g/mu) was 10. For the same molecule, the “Alopecurus japonicas weed controlling effect (activity level)” value (alopecurus japonicas; 8 g/mu) was 10, the “Wheat (activity level, crop damage)” value (wheat [1]; [3]) was 1 (Level 1: below 5% growth control rate) and the “Wheat (activity level, crop damage)” value (wheat [1]; [4]) was 4 (Level 4: above 50% growth control rate). The “Wheat (activity level, crop damage)” value (wheat [1]; [5]) was 4 (Level 4: above 50% growth control rate), the “Wheat (activity level, crop damage)” value (wheat [1]; [6]) was 4 (Level 4: above 50% growth control rate) and the “Wheat (activity level, crop damage)” value (wheat [1]; [7]) was 5 (Level 5: above 60% growth control rate). The “effect on crop, Rice (level)” value (rice) was 7 (Level 7: above 80% growth control rate), the “effect on crop, Corn (level)” value (corn) was 4 (Level 4: above 50% growth control rate) and the “effect on crop, Wheat (level)” value (wheat [2]) was 3 (Level 3: above 20% growth control rate). For the same molecule, the “weed control effect, Green foxtail (level)” value (foxtail) was 10, the “weed control effect, Crab grass (level)” value (crab grass) was 8 (Level 8: above 90% growth control rate) and the “weed control effect, Indian mallow (level)” value (Indian mallow) was 10. The “weed control effect, Echinochloa (level)” value (echinochloa) was 7 (Level 7: above 80% growth control rate), the “weed control effect, Rorippa indica (level)” value (rorippa indica) was 7 (Level 7: above 80% growth control rate) and the “weed control effect, Bidens bipinnata (level)” value (bidens bipinnata) was 8 (Level 8: above 90% growth control rate).
For `Cn1cc(C(=O)Oc2c(C(=O)c3ccc(C(F)(F)F)c(N4CCCCC4=O)c3Cl)c(C3CC3)nn2C)cn1` [Compound 049], the “Alopecurus japonicas weed controlling effect (activity level)” value (alopecurus japonicas; 1 g/mu) was 8 (Level 8: above 90% growth control rate), the “Alopecurus japonicas weed controlling effect (activity level)” value (alopecurus japonicas; 2 g/mu) was 9 (Level 9: above 95% growth control rate) and the “Alopecurus japonicas weed controlling effect (activity level)” value (alopecurus japonicas; 4 g/mu) was 10. The “Alopecurus japonicas weed controlling effect (activity level)” value (alopecurus japonicas; 8 g/mu) was 10, the “Wheat (activity level, crop damage)” value (wheat [1]; [3]) was 0 and the “Wheat (activity level, crop damage)” value (wheat [1]; [4]) was 1 (Level 1: below 5% growth control rate). The “Wheat (activity level, crop damage)” value (wheat [1]; [5]) was 1 (Level 1: below 5% growth control rate), the “Wheat (activity level, crop damage)” value (wheat [1]; [6]) was 3 (Level 3: above 20% growth control rate) and the “Wheat (activity level, crop damage)” value (wheat [1]; [7]) was 3 (Level 3: above 20% growth control rate). For the same molecule, the “effect on crop, Rice (level)” value (rice) was 7 (Level 7: above 80% growth control rate), the “effect on crop, Corn (level)” value (corn) was 2 (Level 2: 5%-20% growth control rate) and the “effect on crop, Wheat (level)” value (wheat [2]) was 3 (Level 3: above 20% growth control rate). For the same molecule, the “weed control effect, Green foxtail (level)” value (foxtail) was 9 (Level 9: above 95% growth control rate), the “weed control effect, Crab grass (level)” value (crab grass) was 6 (Level 6: above 70% growth control rate) and the “weed control effect, Indian mallow (level)” value (Indian mallow) was 10. For the same molecule, the “weed control effect, Echinochloa (level)” value (echinochloa) was 6 (Level 6: above 70% growth control rate), the “weed control effect, Rorippa indica (level)” value (rorippa indica) was 10 and the “weed control effect, Bidens bipinnata (level)” value (bidens bipinnata) was 4 (Level 4: above 50% growth control rate).
For `CCn1nc(C2CC2)c(C(=O)c2ccc(C(F)(F)F)c(N3CCCCC3=O)c2Cl)c1OC(=O)c1cn(C)nc1C` [Compound 115], the “Alopecurus japonicas weed controlling effect (activity level)” value (alopecurus japonicas; 1 g/mu) was 4 (Level 4: above 50% growth control rate), the “Alopecurus japonicas weed controlling effect (activity level)” value (alopecurus japonicas; 2 g/mu) was 6 (Level 6: above 70% growth control rate) and the “Alopecurus japonicas weed controlling effect (activity level)” value (alopecurus japonicas; 4 g/mu) was 10. The “Alopecurus japonicas weed controlling effect (activity level)” value (alopecurus japonicas; 8 g/mu) was 10, the “Wheat (activity level, crop damage)” value (wheat [1]; [3]) was 0 and the “Wheat (activity level, crop damage)” value (wheat [1]; [4]) was 1 (Level 1: below 5% growth control rate). The “Wheat (activity level, crop damage)” value (wheat [1]; [5]) was 3 (Level 3: above 20% growth control rate), the “Wheat (activity level, crop damage)” value (wheat [1]; [6]) was 4 (Level 4: above 50% growth control rate) and the “Wheat (activity level, crop damage)” value (wheat [1]; [7]) was 4 (Level 4: above 50% growth control rate). For the same molecule, the “effect on crop, Rice (level)” value (rice) was 8 (Level 8: above 90% growth control rate), the “effect on crop, Corn (level)” value (corn) was 3 (Level 3: above 20% growth control rate) and the “effect on crop, Wheat (level)” value (wheat [2]) was 1 (Level 1: below 5% growth control rate). The “weed control effect, Green foxtail (level)” value (foxtail) was 10, the “weed control effect, Crab grass (level)” value (crab grass) was 2 (Level 2: 5%-20% growth control rate) and the “weed control effect, Indian mallow (level)” value (Indian mallow) was 10. For the same molecule, the “weed control effect, Echinochloa (level)” value (echinochloa) was 9 (Level 9: above 95% growth control rate), the “weed control effect, Rorippa indica (level)” value (rorippa indica) was 10 and the “weed control effect, Bidens bipinnata (level)” value (bidens bipinnata) was 6 (Level 6: above 70% growth control rate).
For `CC(C)n1nc(C2CC2)c(C(=O)c2ccc(C(F)(F)F)c(N3CCCCC3=O)c2Cl)c1O` [Compound 147], the “Wheat (activity level, crop damage)” value (wheat [1]; [8]) was 0, the “shepherd's purse weed controlling effect (activity level)” value (shepherd's purse) was 10 and the “flixweed weed controlling effect (activity level)” value (flixweed) was 10. The “chickweed weed controlling effect (activity level)” value (chickweed) was 9 (Level 9: above 95% growth control rate) and the “corn gromwell weed controlling effect (activity level)” value (corn gromwell) was 10.
`O=C(c1ccc(C(F)(F)F)c(N2CCCCC2=O)c1Cl)c1c(C2CC2)nn(C2CC2)c1O` [Compound 148] was tested, and the “Wheat (activity level, crop damage)” value (wheat [1]; [8]) was 1 (Level 1: below 5% growth control rate), the “shepherd's purse weed controlling effect (activity level)” value (shepherd's purse) was 10 and the “flixweed weed controlling effect (activity level)” value (flixweed) was 10. For the same molecule, the “chickweed weed controlling effect (activity level)” value (chickweed) was 10 and the “corn gromwell weed controlling effect (activity level)” value (corn gromwell) was 10.

Reference: US11076594B2, “Pyrazolone compound or salt thereof, preparation method therefor, herbicide composition and use thereof” (QINGDAO KINGAGROOT CHEMICAL COMPOUNDS CO., LTD., priority 2015, dated 2021)
